Data set [1] can be described thus: LD50, intravenous route, mice. Particulars: mouse, in vivo.
For data set [2], the system named is A.D.P.-induced blood-platelet aggregation. As to the kind of experiment: A.D.P.-induced blood-platelet aggregation. The data set is classed as in vivo, Wistar rats. Particulars: Rattus norvegicus, po, rats, 100 mg/kg orally, 3 hours after treatment, 10 μM A.D.P. solution, with respect to control group. As for the experimental part:
(§1) Blood is taken from the jugular vein of Wistar rats. From this citrated blood, and after centrifugation, is reconstituted a plasma containing 600,000 ± 20,000 blood-platelets per ml which is used in all aggregation determinations.
(§2) 0.4 ml plasma is placed in a siliconized tube provided with a magnet bar, also siliconized. The tube is introduced into an aggregometer coupled with an apparatus for recording optical density variations. When light transmission has reached a stable value, 0.5 ml of a solution containing 10 μM A.D.P. (Adenosine-Di-Phosphate) is introduced into the tube.
(§3) Blood-platelet aggregation causes an increase of light transmission followed by a decrease subsequent to the deaggregation phase.
(§4) The maximal optical density variation thus determined characterizes the intensity of the aggregation.
(§5) Different groups of 20 rats are used, each group being orally administered a test derivative at a dosage of 100 mg/kg.

Data set [3] deals with collagen-induced blood-platelet aggregation. Put plainly: Collagen-induced blood-platelet aggregation. The data set is classed as in vivo, Wistar rats. Particulars: Rattus norvegicus, po; rats, 100 mg/kg orally, 3 hours after treatment, collagen (bovine tendon extract), with respect to control group; read-out: Percent inhibition of blood-platelet aggregation, Collagen. As for the experimental part: as §1, §2, §3, §4
The A.D.P. solution is substituted with a collagen solution (bovine tendon extract).
as §5

Data set [4] has as its system ovalbumen-induced systemic edema. As to the kind of experiment: Ovalbumen-induced systemic edema method. It counts as in vivo. Particulars: Rattus norvegicus, po, rats, 100 mg/kg orally 1 hour before and with ovalbumen. As for the experimental part:
(b) Ovalbumen-induced systemic edema method
Simultaneous injection of 1 ml ovalbumen and 0.5 ml of a 1% aqueous Evans Blue solution is effected in rats. On the other hand, the animals of the treated group are administered orally 100 mg/kg of the test derivative one hour prior to ovalbumen administration and simultaneously with said administration. The intensity of the phenomenon thus induced is scored according to a scale from 1 to 5 depending on the progress of the inflammatory syndrome. The mean intensity of the edem and the percent decrease of the edema reaction with respect to the control group are thus determined as a function of time.

The test system of data set [5] is carrageenin-induced localized edema. As to the kind of experiment: Carrageenin-induced localized edema method. The data set is classed as in vivo. Particulars: Rattus norvegicus, po, rats, 100 mg/kg orally at -1, 0, 1 and 2.5 hours. As for the experimental part:
(a) Carrageenin-induced localized edema method
0.1 ml of a 1% carrageenin solution is injected in the metatarsal flexor muscles of the right hind limb of rats at time 0. The animals of the treated group are additionally orally administered 100 mg/kg of the test derivative, respectively one hour prior to injection of the phlogogenic agent, simultaneously with said injection, and then 1 hour and 2.5 hours thereafter. The determinations effected by means of a ROCH micrometer at times 0, 1 hour, 2 hours, 3 hours and 5 hours after carrageenin administration make it possible to determine, as a function of time, the percent anti-inflammatory activity with respect to the reference group.

Setting [6] is: read-out: Percent inhibition of blood-platelet aggregation, A.D.P.
Where [7] appears, read: 2 hours after ovalbumen, read-out: Percent anti-inflammatory activity after 2 hours.
Setting [8] is: 3 hours after ovalbumen, read-out: Percent anti-inflammatory activity after 3 hours.
The mark [9] stands for this setting: 1 hour after carrageenin, read-out: Percent anti-inflammatory activity after 1 hour.
The mark [10] stands for this setting: 2 hours after carrageenin, read-out: Percent anti-inflammatory activity after 2 hours.
The mark [11] stands for this setting: 3 hours after carrageenin, read-out: Percent anti-inflammatory activity after 3 hours.
Setting [12] is: 5 hours after carrageenin, read-out: Percent anti-inflammatory activity after 5 hours.

Like-named read-outs stand apart in the source and are kept apart here.

In data set [1], `CN1Cc2sccc2C(c2ccccc2)C1` (centres unmarked) [derivative n°5, 6-Methyl-4-phenyl-4,5,6,7-tetrahydro-thieno[2,3-c]pyridine] returned an LD50 at 24 h of 61 mg/kg. Besides, the values for the inhibition at 100 mg/kg in data set [2] (setting [6]) and in data set [3] were 63.6% and 93.8%, respectively. Also, the inhibition in vivo at 100 mg/kg turned out to be 44% in data set [4] (setting [7]); 51% in data set [4] (setting [8]); 37% in data set [5] (setting [9]); 45% in data set [5] (setting [10]); 50% in data set [5] (setting [11]); 51% in data set [5] (setting [12]).
As for `CC1NCc2sccc2C1c1ccccc1` (centres unmarked) [derivative n°1, 5-Methyl-4-phenyl-4,5,6,7-tetrahydro-thieno[2,3-c]pyridine], the LD50 at 24 h in data set [1] turned out to be 63 mg/kg. Besides, the inhibition at 100 mg/kg was 64.9% in data set [2] (setting [6]) and 96.2% in data set [3]. Further, the inhibition in vivo at 100 mg/kg was 47% in data set [4] (setting [7]); 54% in data set [4] (setting [8]); 37% in data set [5] (setting [9]); 43% in data set [5] (setting [10]); 45% in data set [5] (setting [11]); 47% in data set [5] (setting [12]).
`c1ccc(C2CNCc3sccc32)cc1` (centres unmarked) [derivative n°3, 4-Phenyl-4,5,6,7-tetrahydro-thieno[2,3-c]pyridine] showed an LD50 at 24 h in data set [1] of 69 mg/kg. Moreover, the inhibition at 100 mg/kg was found to be 64.1% in data set [2] (setting [6]) and 95.6% in data set [3]. Moreover, the inhibition in vivo at 100 mg/kg in data set [4] (setting [7]) was determined as 52%; in data set [4] (setting [8]), 59%; in data set [5] (setting [9]), 41%; in data set [5] (setting [10]), 46%; in data set [5] (setting [11]), 50%; in data set [5] (setting [12]), 51%.
In the case of `c1ccc(CCN2Cc3ccsc3C(c3ccccc3)C2)cc1` (centres unmarked) [derivative n°20, 5-Phenethyl-7-phenyl-4,5,6,7-tetrahydro-thieno[3,2-c]pyridine], the figures for the inhibition at 100 mg/kg in data set [2] (setting [6]) and in data set [3] were 63.6% and 94.2%, respectively. Moreover, the inhibition in vivo at 100 mg/kg was 53% in data set [4] (setting [7]); 61% in data set [4] (setting [8]); 43% in data set [5] (setting [9]); 48% in data set [5] (setting [10]); 52% in data set [5] (setting [11]); 55% in data set [5] (setting [12]).
Turning to `c1ccc(CN2Cc3sccc3C(c3ccccc3)C2)cc1` (centres unmarked) [derivative n°12, 6-Benzyl-4-phenyl-4,5,6,7-tetrahydro-thieno[2,3-c]pyridine], the inhibition at 100 mg/kg in data set [2] (setting [6]) is 63.7%; in data set [3] it was 93.3%. Besides, the inhibition in vivo at 100 mg/kg stood at 47% in data set [4] (setting [7]); 55% in data set [4] (setting [8]); 47% in data set [5] (setting [9]); 53% in data set [5] (setting [10]); 57% in data set [5] (setting [11]); 60% in data set [5] (setting [12]).
For `CC1NCc2ccsc2C1c1ccccc1` (centres unmarked) [derivative n°2, 6-Methyl-7-phenyl-4,5,6,7-tetrahydro-thieno[3,2-c]pyridine], the inhibition at 100 mg/kg in data set [2] (3 h, heading: Percent inhibition of blood-platelet aggregation) turned out to be 62.4%; in data set [3], 92.7%. In addition, the inhibition in vivo at 100 mg/kg in data set [4] (setting [7]) came to 42%; in data set [4] (setting [8]) it was 50%; in data set [5] (setting [9]) it was 42%; in data set [5] (setting [10]), 48%; in data set [5] (setting [11]), 51%; in data set [5] (setting [12]), 54%.
On to `O=C(O)c1ccccc1CN1Cc2sccc2C(c2ccccc2)C1` (centres unmarked) [derivative n°16, 6-o.Carboxybenzyl-4-phenyl-4,5,6,7-tetrahydro-thieno[2,3-c]pyridine], for which the inhibition at 100 mg/kg in data set [2] (setting [6]) came out at 63.2%; in data set [3], 94.1%. For the same compound, the inhibition in vivo at 100 mg/kg came out at 49% in data set [4] (setting [7]); 56% in data set [4] (setting [8]); 39% in data set [5] (setting [9]); 45% in data set [5] (setting [10]); 50% in data set [5] (setting [11]); 52% in data set [5] (setting [12]).

The record behind these values is US4104390A, “Thieno [2,3-c] and [3,2-c] pyridines” (Parcor, priority 1976, dated 1978).
